Assay results reported in article PMC11844072, “Novel 5,6-dichlorobenzimidazole derivatives as dual BRAFWT and BRAFV600E inhibitors: design, synthesis, anti-cancer activity and molecular dynamics simulations” (BMC Chemistry, 2025).

How the values were obtained:
[1] = test system: IGROV1; assay: NCI 60 single concentration growth inhibition; type: cell-based, human; details: IGROV1, Ovarian cancer, 10 μM
Summary of the method: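 Growth measured by sulforhodamine B protein staining (515 nm) after 48 h drug exposure at 37 °C, following 24 h plating in RPMI 1640 with 5% FBS and 2 mM L-glutamine. Compounds first tested at one 10 µM dose, then five-dose series (10-fold or ½ log steps); percent growth relative to time-zero and untreated wells.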

[2] = test system: HOP-62; assay: NCI 5-dose assay; type: cell-based; details: Homo sapiens; HOP-62, Non-small cell lung cancer
Description: (§1) The synthesized dichlorobenzimidazoles 10a–p were assayed for their influence on divers cancer cell lines according to the method presented in the Additional file A.
(§2) 5. Screening of cytotoxic activity against a panel of sixty human tumor cell lines
(§3) The selected compounds by NCI were evaluated for their anticancer activity in a two-stage process. First, these compounds were screened against the full NCI 60 cell lines panel at a single high dose of 10 µM. Then, the output from the single dose screen is reported as a mean graph. […]
(§4) at five different minimal concentrations.
(§5) Assay protocol. The human tumor cell lines of the cancer screening panel are grown in RPMI 1640 medium containing 5% fetal bovine serum and 2 mM L-glutamine. For a typical screening experiment, cells are inoculated into 96 well microtiter plates in 100 µL at plating densities ranging from 5000 to 40,000 cells/well depending on the doubling time of individual cell lines. After cell inoculation, the microtiter plates are incubated at 37 °C, 5% CO 2, 95% air and 100% relative humidity for 24 h prior to addition of the experimental drugs.
(§6) After 24 h, two plates of each cell line are fixed in situ with TCA, to represent a measurement of the cell population for each cell line at the time of drug addition (Tz). The experimental drugs are solubilized in dimethyl sulfoxide at 400-fold the desired final maximum test concentration and stored frozen prior to use. At the time of drug addition, an aliquot of frozen concentrate is thawed and diluted to twice the desired final maximum test concentration with complete medium containing 50 µg/mL gentamicin. Additional four, 10-fold or ½ log serial dilutions are made to provide a total of five drug concentrations plus control.
(§7) Aliquots of […] of these different drug dilutions are added to the appropriate microtiter wells already containing […] of medium, resulting in the required final drug concentrations.
(§8) Following drug addition, the plates are incubated for an additional 48 h at 37 °C, 5% CO 2, 95% air, and 100% relative humidity. For adherent cells, the assay is terminated by the addition of cold TCA.
(§9) Cells are fixed in situ by the gentle addition of 50 µL of cold 50% (w/v) TCA (final concentration, 10% TCA) and incubated for 60 min at 4 °C. The supernatant is discarded, and the plates are washed five times with tap water and air dried. Sulforhodamine B (SRB) solution ([…]) at 0.4% (w/v) in 1% acetic acid is added to each well, and plates are incubated for 10 min at room temperature. After staining, unbound dye is removed by washing five times with 1% acetic acid and the plates are air dried. Bound stain is subsequently solubilized with 10 mM trizma base, and the absorbance is read on an automated plate reader at a wavelength of 515 nm. For suspension cells, the methodology is […]
(§10) the same except that the assay is terminated by fixing settled cells at the bottom of the wells by gently adding 50 µl of 80% TCA (final concentration, 16% TCA). Using the seven absorbance measurements [time zero, (Tz), control growth, (C), and test growth in the presence of drug at the five concentration levels (Ti)], the percentage growth is calculated at each of the drug concentrations […]
(§11) Percentage growth inhibition is calculated as: [(Ti Tz)/(C–Tz)] x 100 for concentrations for which Ti>/=Tz and [(Ti-Tz)/Tz] x 100 for concentrations for which Ti < Tz.
(§12) Three dose response parameters are calculated for each experimental agent. Growth […]
(§13) concentration resulting in a 50% reduction in the net protein increase (as measured by SRB staining) in control cells during the drug incubation. The drug concentration resulting in total growth inhibition (TGI) is calculated from Ti = Tz. […]
(§14) reduction in the measured protein at the end of the drug treatment as compared to that at the beginning) indicating a net loss of cells following treatment is calculated from [(Ti–Tz)/Tz] x 100 =
(§15) _50. Values are calculated for each of these three parameters if the level of activity is reached; […]

[3] = test system: SW-620; assay: NCI 5-dose assay; type: cell-based; details: Homo sapiens; SW-620, Colon cancer
Description: as §1, §2, §3, §4, §5, §6, §7, §8, §9, §10, §11, §12, §13, §14, §15

[4] = test system: RXF 393; assay: NCI 5-dose assay; type: cell-based; details: Homo sapiens; RXF 393, Renal cancer
Description: as §1, §2, §3, §4, §5, §6, §7, §8, §9, §10, §11, §12, §13, §14, §15

[5] = test system: HCT-116; assay: NCI 5-dose assay; type: cell-based; details: Homo sapiens; HCT-116, Colon cancer
Description: as §1, §2, §3, §4, §5, §6, §7, §8, §9, §10, §11, §12, §13, §14, §15

[6] = test system: M14; assay: NCI 5-dose assay; type: cell-based; details: Homo sapiens; M14, Melanoma
Description: as §1, §2, §3, §4, §5, §6, §7, §8, §9, §10, §11, §12, §13, §14, §15

[7] = test system: HL-60(TB); assay: NCI 5-dose assay; type: cell-based; details: Homo sapiens, Leukemia
Description: as §1, §2, §3, §4, §5, §6, §7, §8, §9, §10, §11, §12, §13, §14, §15

[8] = test system: HT29; assay: NCI 5-dose assay; type: cell-based; details: Homo sapiens, HT-29; HT29, Colon cancer
Description: as §1, §2, §3, §4, §5, §6, §7, §8, §9, §10, §11, §12, §13, §14, §15

[9] = test system: SK-MEL-28; assay: NCI 5-dose assay; type: cell-based; details: Homo sapiens; SK-MEL-28, Melanoma
Description: as §1, §2, §3, §4, §5, §6, §7, §8, §9, §10, §11, §12, §13, §14, §15

[10] = test system: SK-OV-3; assay: NCI 5-dose assay; type: cell-based; details: Homo sapiens; SK-OV-3, Ovarian cancer
Description: as §1, §2, §3, §4, §5, §6, §7, §8, §9, §10, §11, §12, §13, §14, §15

[11] = test system: IGROV1; assay: NCI 5-dose assay; type: cell-based; details: Homo sapiens, IGROV-1; IGROV1, Ovarian cancer
Description: as §1, §2, §3, §4, §5, §6, §7, §8, §9, §10, §11, §12, §13, §14, §15

[12] = test system: ACHN; assay: NCI 5-dose assay; type: cell-based; details: Homo sapiens, Renal cancer
Description: as §1, §2, §3, §4, §5, §6, §7, §8, §9, §10, §11, §12, §13, §14, §15

[13] = test system: SK-MEL-5; assay: NCI 5-dose assay; type: cell-based; details: Homo sapiens; SK-MEL-5, Melanoma
Description: as §1, §2, §3, §4, §5, §6, §7, §8, §9, §10, §11, §12, §13, §14, §15

[14] = test system: MDA-MB-231/ATCC; assay: NCI 5-dose assay; type: cell-based; details: Homo sapiens, Breast cancer
Description: as §1, §2, §3, §4, §5, §6, §7, §8, §9, §10, §11, §12, §13, §14, §15

[15] = test system: OVCAR-3; assay: NCI 5-dose assay; type: cell-based; details: Homo sapiens; OVCAR-3, Ovarian cancer
Description: as §1, §2, §3, §4, §5, §6, §7, §8, §9, §10, §11, §12, §13, §14, §15

[16] = test system: NCI-H23; assay: NCI 5-dose assay; type: cell-based; details: Homo sapiens; NCI-H23, Non-small cell lung cancer
Description: as §1, §2, §3, §4, §5, §6, §7, §8, §9, §10, §11, §12, §13, §14, §15

[17] = test system: MALME-3M; assay: NCI 5-dose assay; type: cell-based; details: Homo sapiens, Melanoma
Description: as §1, §2, §3, §4, §5, §6, §7, §8, §9, §10, §11, §12, §13, §14, §15

[18] = test system: U251; assay: NCI 5-dose assay; type: cell-based; details: Homo sapiens, U-251; U251, CNS cancer
Description: as §1, §2, §3, §4, §5, §6, §7, §8, §9, §10, §11, §12, §13, §14, §15

[19] = test system: OVCAR-5; assay: NCI 5-dose assay; type: cell-based; details: Homo sapiens; OVCAR-5, Ovarian cancer
Description: as §1, §2, §3, §4, §5, §6, §7, §8, §9, §10, §11, §12, §13, §14, §15

Compound | GI% [1] | GI50 [2] [µM] | GI50 [3] [µM] | GI50 [4] [µM] | GI50 [5] [µM] | GI50 [6] [µM] | GI50 [7] [µM] | GI50 [8] [µM] | GI50 [9] [µM] | GI50 [10] [µM] | GI50 [11] [µM] | GI50 [12] [µM] | GI50 [13] [µM] | GI50 [14] [µM] | GI50 [15] [µM] | GI50 [16] [µM] | GI50 [17] [µM] | GI50 [18] [µM] | GI50 [19] [µM]
2-(4-((2-(2-(5,6-Dichloro-2-(4-methoxyphenyl)-1H-benzo[d]imidazol-1-yl)acetyl)hydrazono)methyl) -2-methoxyphenoxy)acetic acid [Compound 10m] | – (GI% < 5%) |  |  |  |  |  |  |  |  |  |  |  |  |  |  |  |  |  | 
2-(5-((2-(2-(5,6-Dichloro-2-(4-methoxyphenyl)-1H-benzo[d]imidazol-1-yl)acetyl)hydrazono)methyl)-2-methoxyphenoxy)acetic acid [Compound 10n] | – (GI% < 5%) |  |  |  |  |  |  |  |  |  |  |  |  |  |  |  |  |  | 
3-(4-((2-(2-(5,6-Dichloro-2-(4-methoxyphenyl)-1H-benzo[d]imidazol-1-yl)acetyl)hydrazono)methyl)phenoxy)propanoic acid [Compound 10i] | – (GI% < 5%) |  |  |  |  |  |  |  |  |  |  |  |  |  |  |  |  |  | 
COc1ccc(-c2nc3cc(Cl)c(Cl)cc3n2CC(=O)NN=Cc2cccc(OCC(=O)O)c2)cc1 [Compound 10e, 2-(3-((2-(2-(5,6-Dichloro-2-(4-methoxyphenyl)-1H-benzo[d]imidazol-1-yl)acetyl)hydrazono)methyl)phenoxy)acetic acid] | – (GI% < 5%) |  |  |  |  |  |  |  |  |  |  |  |  |  |  |  |  |  | 
COC(=O)COc1ccc(C=NNC(=O)Cn2c(-c3ccc(OC)cc3)nc3cc(Cl)c(Cl)cc32)cc1 [Compound 10h, Methyl-2-(4-((2-(2-(5,6-dichloro-2-(4-methoxyphenyl)-1H-benzo[d]imidazol-1-yl)acetyl)hydrazono)methyl)phenoxy)acetate] |  | 17.3 | 22.2 | 2.85 | 68 | 17.5 | > 82.5 | 1.79 | 11.7 | 19.1 | 4.06 | 7.84 | 80.9 | 6.66 | 10.6 | > 82.5 | 9.18 | 14.1 | 34.3
CCOC(=O)C(C)Oc1ccc(C=NNC(=O)Cn2c(-c3ccc(OC)cc3)nc3cc(Cl)c(Cl)cc32)cc1 (stereo not shown) [Compound 10j, Ethyl-2-(4-((2-(2-(5,6-dichloro-2-(4-methoxyphenyl)-1H-benzo[d]imidazol-1-yl)acetyl) hydrazono)methyl)phenoxy)propanoate] | 25.42% |  |  |  |  |  |  |  |  |  |  |  |  |  |  |  |  |  | 
COc1ccc(-c2nc3cc(Cl)c(Cl)cc3n2CC(=O)NN=Cc2ccc(OC)c(O)c2)cc1 [Compound 10k, 2-(5,6-Dichloro-2-(4-methoxyphenyl)-1H-benzo[d]imidazol-1-yl)-N'-(3-hydroxy-4-methoxybenzylidene)acetohydrazide] | 10.22% |  |  |  |  |  |  |  |  |  |  |  |  |  |  |  |  |  | 
COC(=O)COc1cc(C=NNC(=O)Cn2c(-c3ccc(OC)cc3)nc3cc(Cl)c(Cl)cc32)ccc1OC [Compound 10o, Methyl-2-(5-((2-(2-(5,6-dichloro-2-(4-methoxyphenyl)-1H-benzo[d]imidazol-1-yl)acetyl)hydrazono)methyl)-2-methoxyphenoxy)acetate] | 97.59% | > 100 | > 100 | 11 | > 100 | > 100 | > 100 | 12.9 | > 100 | 26 | 14.7 | 14.2 | > 100 | 16.1 | > 100 | > 100 | > 100 | > 100 | > 100
COC(=O)COc1ccc(C=NNC(=O)Cn2c(-c3ccc(OC)cc3)nc3cc(Cl)c(Cl)cc32)cc1OC [Compound 10p, Methyl-2-(4-((2-(2-(5,6-dichloro-2-(4-methoxyphenyl)-1H-benzo[d]imidazol-1-yl)acetyl)hydrazono)methyl)-2-methoxyphenoxy)acetate] |  | > 72.5 | > 72.5 | 1.43 | > 72.5 | > 72.5 | > 72.5 | 1.46 | > 72.5 | 16 | 3.6 | 5.42 | > 72.5 | 13.8 | > 72.5 | > 72.5 | > 72.5 | > 72.5 | 24
